Laboratory results as given in the NIST ThermoML archive (doi:10.1021/je700373r).
± gives the expanded uncertainty stated by the source.

What was measured:
[1] = Fluid (supercritical or subcritical phases), Vibrating tube method
[2] = xn = mol fraction of the nth substance listed; settings: Fluid (supercritical or subcritical phases), Vibrating tube method, x2 = 0

In the case of `O=C=O` [carbon dioxide], the mass density ([1]; 308.15 K, 10000 kPa) is reported as 717.2 ± 2.1 kg/m3, the mass density ([1]; 308.15 K, 15000 kPa) is reported as 816.1 ± 1.6 kg/m3 and the mass density ([1]; 308.15 K, 20000 kPa) is reported as 866.1 ± 1 kg/m3. For the same compound, the mass density ([1]; 308.15 K, 30000 kPa) was 929 ± 0.8 kg/m3, the mass density ([1]; 308.15 K, 40000 kPa) was 971.7 ± 0.7 kg/m3 and the mass density ([1]; 313.15 K, 10000 kPa) was 636.6 ± 3.3 kg/m3. It also gave a mass density ([1]; 313.15 K, 15000 kPa) of 781.3 ± 2.1 kg/m3, a mass density ([1]; 313.15 K, 20000 kPa) of 840.2 ± 1 kg/m3 and a mass density ([1]; 313.15 K, 30000 kPa) of 909.7 ± 0.9 kg/m3. For the same compound, the mass density ([1]; 313.15 K, 40000 kPa) was 955.5 ± 0.8 kg/m3, the mass density ([1]; 323.15 K, 10000 kPa) was 397.3 ± 5.2 kg/m3 and the mass density ([1]; 323.15 K, 15000 kPa) was 701.8 ± 3.9 kg/m3. For the same compound, the mass density ([1]; 323.15 K, 20000 kPa) was 784.9 ± 1.3 kg/m3, the mass density ([1]; 323.15 K, 30000 kPa) was 870.3 ± 0.9 kg/m3 and the mass density ([1]; 323.15 K, 40000 kPa) was 922.8 ± 0.8 kg/m3. For the same compound, the mass density ([1]; 333.15 K, 10000 kPa) was 296.1 ± 6.3 kg/m3, the mass density ([1]; 333.15 K, 15000 kPa) was 607 ± 4.4 kg/m3 and the mass density ([1]; 333.15 K, 20000 kPa) was 724.4 ± 1.6 kg/m3. It also gave a mass density ([1]; 333.15 K, 30000 kPa) of 829.6 ± 1.1 kg/m3 and a mass density ([1]; 333.15 K, 40000 kPa) of 889.8 ± 0.9 kg/m3.
For `O=C=O` [carbon dioxide] + CC1=C(/C=C/C(C)=C/C=C/C(C)=C/C=C/C=C(C)/C=C/C=C(C)/C=C/C2=C(C)CCCC2(C)C)C(C)(C)CCC1, the mass density ([2]; 308.15 K, 10000 kPa) was 717.2 ± 2.1 kg/m3, the mass density ([2]; 308.15 K, 15000 kPa) was 816.1 ± 1.6 kg/m3 and the mass density ([2]; 308.15 K, 20000 kPa) was 866.1 ± 1 kg/m3. It also gave a mass density ([2]; 308.15 K, 30000 kPa) of 929 ± 0.8 kg/m3, a mass density ([2]; 308.15 K, 40000 kPa) of 971.7 ± 0.7 kg/m3 and a mass density ([2]; 313.15 K, 10000 kPa) of 636.6 ± 3.3 kg/m3. For the same compound, the mass density ([2]; 313.15 K, 15000 kPa) was 781.3 ± 2.1 kg/m3, the mass density ([2]; 313.15 K, 20000 kPa) was 840.2 ± 1 kg/m3 and the mass density ([2]; 313.15 K, 30000 kPa) was 909.7 ± 0.9 kg/m3. The mass density ([2]; 313.15 K, 40000 kPa) was 955.5 ± 0.8 kg/m3, the mass density ([2]; 323.15 K, 10000 kPa) was 397.3 ± 5.2 kg/m3 and the mass density ([2]; 323.15 K, 15000 kPa) was 701.8 ± 3.9 kg/m3. It also gave a mass density ([2]; 323.15 K, 20000 kPa) of 784.9 ± 1.3 kg/m3, a mass density ([2]; 323.15 K, 30000 kPa) of 870.3 ± 0.9 kg/m3 and a mass density ([2]; 323.15 K, 40000 kPa) of 922.8 ± 0.8 kg/m3. For the same compound, the mass density ([2]; 333.15 K, 10000 kPa) was 296.1 ± 6.3 kg/m3, the mass density ([2]; 333.15 K, 15000 kPa) was 607 ± 4.4 kg/m3 and the mass density ([2]; 333.15 K, 20000 kPa) was 724.4 ± 1.6 kg/m3. It also gave a mass density ([2]; 333.15 K, 30000 kPa) of 829.6 ± 1.1 kg/m3 and a mass density ([2]; 333.15 K, 40000 kPa) of 889.8 ± 0.9 kg/m3.
